Test results from publication PMC9421656, “Beyond Retigabine: Design, Synthesis, and Pharmacological Characterization of a Potent and Chemically Stable Neuronal Kv7 Channel Activator with Anticonvulsant Activity” (Journal of Medicinal Chemistry, 2022).

Experiments:
[1] = molecular target: T1, Kv7.2 W236L channels (Homo sapiens, UniProt O43526, W236L); experiment: Whole-cell patch-clamp on homomeric Kv7.2 W236L mutant channels; assay type: cell-based; details: 10 μM RET or 1 μM 60
T1 construct: expressed in transfected cells; host or cells: CHO cells, transient transfection (pcDNA3.1)

[2] = molecular target: T2, Kv7.2 S303A channels (Homo sapiens, UniProt O43526, S303A); experiment: Whole-cell patch-clamp on homomeric Kv7.2 S303A mutant channels; assay type: cell-based; details: 10 μM RET or 1 μM 60
T2 construct: expressed in transfected cells; host or cells: CHO cells, transient transfection (pcDNA3.1)
Text: Current scale, 200 pA; time scale, 200 ms. (B,C) Dose–response curves reporting the effects of the 3 indicated compounds on the V1/2 shift (ΔV1/2) in mV (B) and on maximal current density (Idrug/Icontrol; C) calculated at +20 mV for Kv7.2/Kv7.3 channels.
Channel subunits were expressed in Chinese hamster ovary (CHO) cells by transient transfection, using plasmids containing cDNAs encoding human Kv7.2 and/or Kv7.3, all cloned in the pcDNA3.1 vector. According to the experimental protocol, these plasmids were expressed individually or in combination, together with a plasmid-expressing enhanced green fluorescent protein (Clontech, Palo Alto, CA) used as a transfection marker. Total cDNA in the transfection mixture was kept at 4 μg. CHO cells were grown in 100 mm plastic Petri dishes in Dulbecco’s modified Eagle’s medium containing 10% fetal bovine serum, nonessential amino acids (0.1 mM), penicillin (50 U/mL), and streptomycin ([…]) in a humidified atmosphere at 37 °C with 5% CO2.
Currents from CHO cells were recorded at room temperature (20–22 °C) using the whole-cell configuration of the patch-clamp technique, with glass micropipettes of 3–5 MΩ resistance. During the recording, constant perfusion of extracellular solution was maintained. […] The pipette (intracellular) solution contained (in mM): 140 KCl, 2 MgCl2, 10 EGTA, 10 HEPES, 5 Mg^2+-ATP, at pH 7.3–7.4, with KOH. […]

[3] = Photostability under UV-visible light with HPLC analysis (degradation, dimer formation); assay type: physicochemical; details: for % Degradation (3h, UV): 10 μM, buffered aqueous solution pH 7.4, 3 h UV-visible light, ± SD; for Dimers Formation: HPLC at 550 nm
Text: Two different HPLC wavelengths were utilized: (a) […] to evaluate the decreased concentration of the starting molecule; (b) 550 nm to investigate the formation of phenazine/phenazinium dimers, as previously described.[10] Unfortunately, dimer formation was detected for all tested compounds, except for 23 and 24. […]. […]. The first group consisted of N4 (−X- in Table 2) substituted analogues, in which the tertiary amine is unavailable for the formation of phenazine dimers (compounds 25–28). […]. The third group included derivatives replacing hydrogen atoms with electron-withdrawing fluorine atoms at position R2 of the benzene-1,2,4-triamine core scaffold (compounds 59, 60), a strategy likely reducing the reactivity of N2 and N4. […].
Photostability experiments were performed by dissolving compounds in DMSO and then diluting in buffered aqueous solutions at pH 7.4 to a final concentration of 10 μM. 1 cm quartz cells, filled with the abovementioned solutions, were irradiated by a UV lamp (UV Consulting TQ 150 equipped with Duran 50 sleeve and 150 W power supply unit, Peschl, Germany) at a fixed distance of 20 cm from the UV source. Control samples were maintained at 37 °C, wrapped with aluminum foil to avoid light exposure, and used to assess chemical stability of the compounds. At predetermined intervals, aliquots were withdrawn and analyzed by UHPLC in order to assess the concentration decrease of the starting materials and the presence of the dimers usually formed by retigabine.
Photostability and chemical stability experiments were carried out on a Kinetex^TM C18 150 × 2.1 mm × 2.6 μm (100 Å) column (Phenomenex, Bologna, Italy). The optimal mobile phase consisted of 0.1% TFA/H2O v/v (A) and 0.1% TFA/ACN v/v (B). Analysis was performed in gradient elution as follows: 0–13.0 min, 5–65% B; 13–14.0 min, 65–95% B; 14–15.0 min, isocratic to 95% B; 15–15.01 min, 95–5% B; then 3 min for column re-equilibration. The flow rate was 0.5 mL min^–1. The column oven temperature was set to 45 °C. The injection volume was 7 μL of sample. The following PDA parameters were applied: sampling rate, 12.5 Hz; detector time constant, 0.160 s; cell temperature, 40 °C. Data acquisition was set in the range 190–800 nm, and chromatograms were monitored at 224 nm to assess the decrease in concentration of the starting material, while a wavelength of 550 nm was used to eventually detect dimerization.

[4] = In vitro metabolism assay (S9 fraction of human liver microsomes); assay type: in vitro ADME
Procedure: To further explore the metabolic stability of compounds 25, 26, and 60 in a biologically relevant model, they were tested in an in vitro metabolism assay (S9 fraction of human liver microsomes) using retigabine as a comparator.[33],[34] In this assay, a very small extent (4.7 ± 0.5%) of retigabine undergoes phase I metabolism, whereas a larger fraction (17.4 ± 1.2%) was metabolized in phase II reactions, as previously reported.[35]

[5] = S9 fraction of human liver microsomes

Structure (SMILES)	Kv7 opening ability in W236L channels [1]	Kv7 opening ability in S303A channels [2]	% Degradation (3h, UV) [3] [%]	Dimers Formation ([3]; 3 h UV-visible light)	Phase I turnover metabolism [4, 5] [%]	Phase II turnover metabolism [4, 5] [%]	Photodegradation (in words) ([3]; 3 h UV-visible light, compared with retigabine)	Phase I turnover metabolism ([4]; human) [%]	Phase II turnover metabolism ([4]; human) [%]
CCOC(=O)Nc1ccc(NCc2ccc(F)cc2)cc1N [RET, retigabine]	almost fully abolished	slightly but significantly reduced	61.3±0.1	Yes	4.7 ± 0.5	17.4 ± 1.2	–	–	–
CC(C)(C)CC(=O)Nc1ccc(NCc2ccc(C(F)(F)F)cc2)c(F)c1N [compound 60, N-(2-Amino-3-fluoro-4-((4-(trifluoromethyl)benzyl)amino)phenyl)-3,3-dimethylbutanamide]	almost fully abolished	slightly but significantly reduced	34.8± 1.8	failed to dimerize and No	–	–	more photostable than retigabine	8.2 ± 2.7	15.6 ± 0.3
